The structures appear in SMILES notation.

One test has as its system HCC827. Briefly: Antiproliferative activity against human HCC827 cells assessed as inhibition of cell growth measured after 72 hrs by MTT assay. The note with it: HCC827, 72 h. It counts as functional, cell-based. In general terms: Tetrazolium assays rely on reduction of a dye to a coloured formazan, in cell work by metabolically active cells.
The test system of a further test is NCI-H1975. The test is described as follows: Antiproliferative activity against human NCI-H1975 cells assessed as inhibition of cell growth measured after 72 hrs by MTT assay. The following applies: NCI-H1975, 72 h. It counts as functional, cell-based.
The next test has as its system A549. The test is described as follows: Antiproliferative activity against human A549 cells assessed as inhibition of cell growth measured after 72 hrs by MTT assay. The following applies: A549, 72 h. The test is classed as functional, cell-based.
Test [1] deals with Epidermal growth factor receptor (Homo sapiens), P00533 [UNDEFINED MUTATION]. The following applies: dose 100.0 nM.
Test [2] shares this test system. The note with it: dose 30.0 nM.

Sequence of Epidermal growth factor receptor (Homo sapiens), P00533 [UNDEFINED MUTATION] (P00533 whole entry, looked up, change not shown): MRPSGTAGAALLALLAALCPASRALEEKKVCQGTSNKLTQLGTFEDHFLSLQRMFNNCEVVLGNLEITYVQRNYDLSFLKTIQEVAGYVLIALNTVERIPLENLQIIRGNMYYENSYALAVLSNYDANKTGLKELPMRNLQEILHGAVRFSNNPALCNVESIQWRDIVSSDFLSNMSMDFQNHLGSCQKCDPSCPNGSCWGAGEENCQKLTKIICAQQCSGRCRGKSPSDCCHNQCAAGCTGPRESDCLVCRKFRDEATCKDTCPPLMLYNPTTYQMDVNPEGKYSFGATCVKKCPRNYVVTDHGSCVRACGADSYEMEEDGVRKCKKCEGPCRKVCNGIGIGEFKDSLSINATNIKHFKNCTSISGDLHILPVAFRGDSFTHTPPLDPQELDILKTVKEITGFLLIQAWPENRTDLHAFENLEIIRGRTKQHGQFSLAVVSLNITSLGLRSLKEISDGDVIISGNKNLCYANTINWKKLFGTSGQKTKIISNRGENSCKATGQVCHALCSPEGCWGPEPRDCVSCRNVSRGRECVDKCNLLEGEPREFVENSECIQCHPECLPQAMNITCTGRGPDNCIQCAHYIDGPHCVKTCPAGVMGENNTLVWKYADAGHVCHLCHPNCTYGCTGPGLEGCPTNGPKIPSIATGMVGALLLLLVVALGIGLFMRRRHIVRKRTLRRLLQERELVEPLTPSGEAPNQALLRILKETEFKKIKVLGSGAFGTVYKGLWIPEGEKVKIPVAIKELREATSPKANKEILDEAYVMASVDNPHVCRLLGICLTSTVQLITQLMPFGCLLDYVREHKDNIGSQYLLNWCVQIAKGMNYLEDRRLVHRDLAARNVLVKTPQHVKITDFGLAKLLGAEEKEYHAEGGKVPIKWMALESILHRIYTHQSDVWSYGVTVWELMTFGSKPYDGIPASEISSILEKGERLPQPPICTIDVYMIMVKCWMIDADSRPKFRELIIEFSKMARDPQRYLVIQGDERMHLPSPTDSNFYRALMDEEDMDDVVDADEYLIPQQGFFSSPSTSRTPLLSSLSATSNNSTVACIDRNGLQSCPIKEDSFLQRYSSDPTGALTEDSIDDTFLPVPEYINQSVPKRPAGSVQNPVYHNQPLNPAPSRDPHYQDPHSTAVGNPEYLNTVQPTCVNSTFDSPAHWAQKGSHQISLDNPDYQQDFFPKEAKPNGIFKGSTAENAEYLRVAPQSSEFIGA

Broadly, the IC50 is the concentration at which inhibition is half-maximal. A word on the inhibition: it is the relative decrease from the control value, in per cent. With `COc1cc(Nc2ncc(Cl)c(Nc3sccc3C(=O)NO)n2)cc(OC)c1OC`, the IC50 was 69 nM in the test with HCC827, 583 nM with NCI-H1975 and 521 nM in the test with A549. The figures for the inhibition in test [1] and in test [2] were 59.9% and 23.1%, respectively.

For the compound `O=C(NO)c1ccsc1Nc1nc(Nc2ccc(CCN3CCOCC3)cc2)ncc1Cl`, the results for the IC50 with HCC827, in the test with NCI-H1975 and in the test on A549 were 45 nM, 162 nM and 388 nM, respectively. The inhibition came out at 64.9% in test [1] and 36.7% in test [2].

As to `Cc1cnc(Nc2ccc(N3CCOCC3)cc2)nc1Nc1ccsc1C(=O)NO`, the results for the IC50 in the test with HCC827, with NCI-H1975 and in the test on A549 were 55 nM, 474 nM and 169 nM, respectively. Besides, the inhibition was 71.2% in test [1] and 42.1% in test [2].

For `O=C(NO)c1ccsc1Nc1nc(Nc2ccc(CN3CCOCC3)cc2)ncc1Br`, the figures for the IC50 in the test with HCC827, with NCI-H1975 and with A549 were 48 nM, 879 nM and 331 nM, respectively. In addition, the inhibition was found to be 62.5% in test [1] and 38.6% in test [2].

With `O=C(NO)c1ccsc1Nc1nc(Nc2ccc(N3CCOCC3)cc2)ncc1Br`, the IC50 with HCC827 amounted to 429 nM; with NCI-H1975 it was 2010 nM; in the test on A549 it was 358 nM. In addition, the inhibition in test [1] stood at 55.9%; in test [2], 12.4%.

On to `O=C(NO)c1sc2ccccc2c1Nc1nc(Nc2cccc(N3CCOCC3)c2)ncc1Br`, for which the IC50 is 584 nM with HCC827, 15500 nM in the test on NCI-H1975 and 18200 nM with A549. For the same compound, the values for the inhibition in test [1] and in test [2] were 32.2% and 14.4%, respectively.

For the compound `O=C(NO)c1sc2ccccc2c1Nc1nc(Nc2ccc(N3CCOCC3)cc2)ncc1Br`, the values for the IC50 in the test with HCC827, in the test with NCI-H1975 and in the test with A549 were 4340 nM, 2400 nM and 4850 nM, respectively. Also, the inhibition in test [1] was 4.79%; in test [2] it was 0.17%.

`O=C(NO)c1ccsc1Nc1nc(Nc2ccc(N3CCOCC3)cc2)ncc1C(F)(F)F`: the IC50 with HCC827 is 1700 nM; in the test on NCI-H1975, 1670 nM; with A549, 18600 nM. Besides, the inhibition in test [1] was determined as 32.7%; in test [2], 18.2%.

With `O=C(NO)c1ccsc1Nc1nc(Nc2cccc(N3CCOCC3)c2)ncc1Cl`, the IC50 worked out at 462 nM in the test on HCC827, 788 nM with NCI-H1975 and 828 nM in the test with A549. The inhibition is 66.8% in test [1] and 23.9% in test [2].

On to `O=C(NO)c1ccsc1Nc1nc(Nc2ccc(CN3CCOCC3)cc2)ncc1Cl`, for which the IC50 in the test with HCC827 turned out to be 33 nM; with NCI-H1975 it was 331 nM; in the test with A549, 371 nM. For the same compound, the inhibition in test [1] turned out to be 70.9%; in test [2], 44.1%.

Consider `O=C(NO)c1ccsc1Nc1ccnc(Nc2ccc(N3CCOCC3)cc2)n1`, for which the results for the IC50 in the test with HCC827, with NCI-H1975 and in the test with A549 were 463 nM, 542 nM and 5630 nM, respectively. The inhibition in test [1] was 50.2%; in test [2], 15.9%.

Consider `O=C(NO)c1sccc1Nc1nc(Nc2ccc(N3CCOCC3)cc2)ncc1Br`, for which the IC50 in the test on HCC827 turned out to be 32 nM; in the test with NCI-H1975, 1130 nM; with A549 it was 201 nM. Also, the values for the inhibition in test [1] and in test [2] were 67.2% and 44.9%, respectively.

Turning to `Cc1cnc(Nc2ccc(N3CCOCC3)cc2)nc1Nc1sccc1C(=O)NO`, the values for the IC50 with HCC827, with NCI-H1975 and with A549 were 230 nM, 347 nM and 114 nM, respectively. Further, the inhibition was 57.2% in test [1] and 21.9% in test [2].

With `O=C(NO)c1ccsc1Nc1nc(Nc2ccc(OCCN3CCOCC3)cc2)ncc1Cl`, the IC50 in the test with HCC827 is 70 nM; in the test with NCI-H1975 it was 249 nM; in the test with A549, 557 nM. For the same compound, the figures for the inhibition in test [1] and in test [2] were 66% and 36.1%, respectively.

With `O=C(NO)c1ccsc1Nc1nc(Nc2ccc(OCCN3CCOCC3)cc2)ncc1Br`, the IC50 in the test with HCC827 came to 346 nM; in the test with NCI-H1975, 247 nM; in the test on A549 it was 718 nM. Besides, the inhibition in test [1] came out at 51.3%; in test [2], 19.7%.

With `COc1cc(Nc2ncc(Cl)c(Nc3ccsc3C(=O)NO)n2)cc(OC)c1OC`, the IC50 came to 896 nM in the test on HCC827, 159 nM in the test on NCI-H1975 and 1860 nM in the test on A549. Further, the inhibition is 60.6% in test [1] and 28.5% in test [2].

Consider `COc1cc(N2CCC(N3CCN(C)CC3)CC2)ccc1Nc1ncc(Cl)c(Nc2ccccc2P(C)(C)=O)n1` [BRIGATINIB], for which the IC50 with HCC827 was 3 nM; in the test with NCI-H1975, 424 nM; in the test on A549, 371 nM. The results for the inhibition in test [1] and in test [2] were 89.7% and 64.1%, respectively.

Regarding `O=C(NO)c1ccsc1Nc1nc(Nc2ccc(OCCCN3CCOCC3)cc2)ncc1Br`, the IC50 with HCC827 stood at 335 nM; in the test on NCI-H1975, 524 nM; in the test with A549, 733 nM. Moreover, the values for the inhibition in test [1] and in test [2] were 53% and 29.8%, respectively.

With `O=C(NO)c1sccc1Nc1nc(Nc2cccc(N3CCOCC3)c2)ncc1Cl`, the figures for the IC50 with HCC827, in the test on NCI-H1975 and with A549 were 3250 nM, 1200 nM and 11200 nM, respectively. In addition, the inhibition in test [1] came out at 45%; in test [2] it was 15.8%.

`O=C(NO)c1ccsc1Nc1nc(Nc2ccc(CCN3CCOCC3)cc2)ncc1Br`: the IC50 in the test with HCC827 is 37 nM; in the test on NCI-H1975, 276 nM; with A549, 650 nM. Moreover, the inhibition in test [1] was found to be 65.5%; in test [2], 32.8%.

(Values after ChEMBL document CHEMBL5518185, “Design, synthesis and antitumor activity of 4-arylamine substituted pyrimidine derivatives as noncovalent EGFR inhibitors overcoming C797S mutation” (Eur J Med Chem, 2024).)
